In US11708359B2, “Monoacylglycerol lipase modulators” (Janssen Pharmaceutica NV, priority 2020, dated 2023) one finds IC50 data, which are given here for 26 compounds.

pIC50: −log10 of the molar value.

The pIC50 is the negative decadic logarithm of the IC50, by convention in mol/L.

The target of the first assay is human MGL from HeLa cells (Homo sapiens (Human), UniProt Q99685). As to the kind of experiment: MGL in vitro activity assay ([glycerol-1,3-3H]-oleoyl glycerol cleavage, activated carbon filter). Type of assay: biochemical.
human MGL from HeLa cells, sequence (Q99685 whole entry): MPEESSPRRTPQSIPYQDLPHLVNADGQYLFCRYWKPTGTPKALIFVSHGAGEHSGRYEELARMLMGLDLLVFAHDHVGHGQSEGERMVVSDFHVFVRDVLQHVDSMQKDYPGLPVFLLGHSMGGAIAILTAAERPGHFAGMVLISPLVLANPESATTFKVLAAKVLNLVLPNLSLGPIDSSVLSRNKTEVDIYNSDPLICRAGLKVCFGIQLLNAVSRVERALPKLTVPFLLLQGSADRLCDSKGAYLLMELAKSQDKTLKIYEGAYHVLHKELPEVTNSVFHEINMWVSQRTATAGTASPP
Details: not given
The method, then:
The assay consists of combining endogenously expressed MGL from HeLa cells with test compounds, adding[glycerol-1,3-^3H]-oleoyl glycerol, incubating for one hour, and then measuring the amount of cleaved[1,3-^3H]-glycerol that passes through an activated carbon filter. The amount of cleaved, tritiated glycerol passing through the carbon filter is proportional to the activity of the MGL enzyme in a particular well/test condition.
Standard conditions for this assay combine 300 nM [Glycerol-1,3-^3H]-oleoyl glycerol with human MGL from HeLa cells and test compounds for one hour, after which the reaction is filtered through activated carbon and tritium is measured in the flow through. […] MGL is the predominant hydrolase in HeLa cells/cell homogenates.
In the case of `Cc1ccc(C23CCN(C(=O)[C@H]4C[C@]5(CCC(=O)N5)C4)CC2C3)cc1OC(F)(F)F` (mixture of isomers) [Example 76, (rac)-(2r,4s)-2-(6-(4-Methyl-3-(trifluoromethoxy)phenyl)-3-azabicyclo[4.1.0]heptane-3-carbonyl)-5-azaspiro[3.4]octan-6-one], the pIC50 was 8.59.

The assay is the same for the next values; noted with them: 300 nM [Glycerol-1,3-3H]-oleoyl glycerol, endogenously expressed MGL from HeLa cells, one hour incubation; read-out: MGL IC50.
For the compound `O=C1N[C@]2(CO1)C[C@H](C(=O)N1CCC3CC3(c3ccccc3)C1)C2` (mixture of isomers) [Example 77, (rac)-(2s,4s)-2-(1-Phenyl-3-azabicyclo[4.1.0]heptane-3-carbonyl)-7-oxa-5-azaspiro[3.4]octan-6-one], the negative-log IC50 (pIC50) was 6.62. Same read-out and setting: then `CCc1ccc(C23CC2CN(C(=O)[C@H]2C[C@]4(COC(=O)N4)C2)C3)cc1` (mixture of isomers) [Example 94, (rac)-(2s,4s)-2-(1-(4-Ethylphenyl)-3-azabicyclo[3.1.0]hexane-3-carbonyl)-7-oxa-5-azaspiro[3.4]octan-6-one], with 8.46. As to `Cc1ccccc1[C@H]1[C@@H]2CN(C(=O)[C@H]3C[C@]4(COC(=O)N4)C3)C[C@@]21C` (racemic) [Example 97, (rac)-(2s,4*S)-2-((1*R,5*S,6*R)-1-Methyl-6-(o-tolyl)-3-azabicyclo[3.1.0]hexane-3-carbonyl)-7-oxa-5-azaspiro[3.4]octan-6-one], the pIC50 was 6.74. Take `Cc1ccc([C@H]2[C@@H]3CN(C(=O)[C@H]4C[C@]5(COC(=O)N5)C4)C[C@@]32C)cc1C` (racemic) [Example 102, (rac)-(2s,4*5)-2-((1*R,5*S,6*R)-6-(3,4-Dimethylphenyl)-1-methyl-3-azabicyclo[3.1.0]hexane-3-carbonyl)-7-oxa-5-azaspiro[3.4]octan-6-one]: the negative logarithm of the IC50 (pIC50) is 7.64. As to `C[C@]12CN(C(=O)[C@H]3C[C@]4(COC(=O)N4)C3)C[C@H]1[C@@H]2c1cccc(C(F)(F)F)c1` (racemic) [Example 106, (rac)-(2s,4*5)-2-((1*R,5*S,6*R)-1-Methyl-6-(3-(trifluoromethyl)phenyl)-3-azabicyclo[3.1.0]hexane-3-carbonyl)-7-oxa-5-azaspiro[3.4]octan-6-one], the pIC50 was 7.55. The same measure, in the same setting: then `C[C@]12CN(C(=O)[C@H]3C[C@]4(COC(=O)N4)C3)C[C@H]1[C@@H]2c1ccc(OC(F)(F)F)cc1` (racemic) [Example 107, (rac)-(2s,4*5)-2-((1*R,5*S,6*R)-1-Methyl-6-(4-(trifluoromethoxy)phenyl)-3-azabicyclo[3.1.0]hexane-3-carbonyl)-7-oxa-5-azaspiro[3.4]octan-6-one], with 7.14; and `C[C@]12CN(C(=O)[C@H]3C[C@]4(COC(=O)N4)C3)C[C@H]1[C@@H]2c1ccc(C2CC2)cc1` (racemic) [Example 108, (rac)-(2s,4*5)-2-((1*R,5*S,6*R)-6-(4-Cyclopropylphenyl)-1-methyl-3-azabicyclo[3.1.0]hexane-3-carbonyl)-7-oxa-5-azaspiro[3.4]octan-6-one], with 7.42.

`Cc1ccc([C@H]2[C@@H]3CN(C(=O)[C@H]4C[C@]5(COC(=O)N5)C4)C[C@@]32C)cc1C(F)(F)F` (racemic) [Example 112, (rac)-(2s,4*S)-2-((1*R,5*S,6*R)-1-Methyl-6-(4-methyl-3-(trifluoromethyl)phenyl)-3-azabicyclo[3.1.0]hexane-3-carbonyl)-7-oxa-5-azaspiro[3.4]octan-6-one]: the pIC50 is 8.22. As for `Cc1ccc([C@H]2[C@@H]3CN(C(=O)[C@H]4C[C@]5(COC(=O)N5)C4)C[C@@]32C)cc1OC(F)(F)F` (racemic) [Example 114, (rac)-(2s,4*S)-2-((1*R,5*S,6*R)-1-Methyl-6-(4-methyl-3-(trifluoromethoxy)phenyl)-3-azabicyclo[3.1.0]hexane-3-carbonyl)-7-oxa-5-azaspiro[3.4]octan-6-one], the pIC50 was 8.39. On the same count and under the same terms, then `O=C1N[C@]2(CO1)C[C@H](C(=O)N1CCC3(c4ccccc4)C(Cl)C3C1)C2` (mixture of isomers) [Example 123, (rac)-(2s,4s)-2-(7-Chloro-6-phenyl-3-azabicyclo[4.1.0]heptane-3-carbonyl)-7-oxa-5-azaspiro[3.4]octan-6-one], with 6.70.

As to `O=C1N[C@]2(CO1)C[C@H](C(=O)N1CCC3(c4ccccc4)C(C1)C3(Cl)Cl)C2` (racemic) [Example 124, (rac)-(2s,4s)-2-(7,7-Dichloro-6-phenyl-3-azabicyclo[4.1.0]heptane-3-carbonyl)-7-oxa-5-azaspiro[3.4]octan-6-one], the negative logarithm of the IC50 (pIC50) is 7.49. On the same count and under the same terms, under `O=C1CCC2(CC(C(=O)N3CC[C@@]4(c5cccc(OC(F)(F)F)c5)C[C@H]4C3)C2)N1` (relative stereo) [Example 119, (2r,4*5)-2-((1*R,6*5)-6-(3-(Trifluoromethoxy)phenyl)-3-azabicyclo[4.1.0]heptane-3-carbonyl)-5-azaspiro[3.4]octan-6-one] stands 8.28; under `O=C1CCC2(CC(C(=O)N3CC[C@]4(c5cccc(OC(F)(F)F)c5)C[C@@H]4C3)C2)N1` (relative stereo) [Example 120, (2r,4*R)-2-((1*S,6*R)-6-(3-(Trifluoromethoxy)phenyl)-3-azabicyclo[4.1.0]heptane-3-carbonyl)-5-azaspiro[3.4]octan-6-one], 7.64.

Take `O=C1CCC2(CC(C(=O)N3CC[C@@]4(c5ccc(OC(F)(F)F)cc5)C[C@H]4C3)C2)N1` (relative stereo) [Example 121, (2r,4*5)-2-((1*R,6*S)-6-(4-(Trifluoromethoxy)phenyl)-3-azabicyclo[4.1.0]heptane-3-carbonyl)-5-azaspiro[3.4]octan-6-one]: the pIC50 was 7.38.

`O=C1CCC2(CC(C(=O)N3CC[C@]4(c5ccc(OC(F)(F)F)cc5)C[C@@H]4C3)C2)N1` (relative stereo) [Example 122, (2r,4*R)-2-((1*S,6*R)-6-(4-(Trifluoromethoxy)phenyl)-3-azabicyclo[4.1.0]heptane-3-carbonyl)-5-azaspiro[3.4]octan-6-one]: the pIC50 was 7.92. On the same count and under the same terms, under `CC(C)c1cccc([C@@]23C[C@@H]2CN(C(=O)[C@H]2C[C@]4(COC(=O)N4)C2)C3)c1` (stereo in doubt) [Example 7, (2s,4*5)-2-((1*R,5*5)-1-(3-Isopropylphenyl)-3-azabicyclo[3.1.0]hexane-3-carbonyl)-7-oxa-5-azaspiro[3.4]octan-6-one] stands 8.30.

Turning to `CC(C)c1cccc([C@]23C[C@H]2CN(C(=O)[C@H]2C[C@]4(COC(=O)N4)C2)C3)c1` (stereo in doubt) [Example 8, (2s,4*R)-2-((1*S,5*R)-1-(3-Isopropylphenyl)-3-azabicyclo[3.1.0]hexane-3-carbonyl)-7-oxa-5-azaspiro[3.4]octan-6-one], the pIC50 is 7.96. For `CC(C)c1ccc([C@@]23C[C@@H]2CN(C(=O)[C@H]2C[C@]4(COC(=O)N4)C2)C3)cc1` (stereo in doubt) [Example 10, (2s,4*5)-2-((1*R,5*S)-1-(4-Isopropylphenyl)-3-azabicyclo[3.1.0]hexane-3-carbonyl)-7-oxa-5-azaspiro[3.4]octan-6-one], the pIC50 was 8.64. On to `CC(C)c1ccc([C@]23C[C@H]2CN(C(=O)[C@H]2C[C@]4(COC(=O)N4)C2)C3)cc1` (stereo in doubt) [Example 11, (2s,4*R)-2-((1*S,5*R)-1-(4-Isopropylphenyl)-3-azabicyclo[3.1.0]hexane-3-carbonyl)-7-oxa-5-azaspiro[3.4]octan-6-one], for which the negative-log IC50 (pIC50) was 8.64.

Regarding `CC(C)(C)c1ccc([C@@]23C[C@@H]2CN(C(=O)[C@H]2C[C@]4(CCC(=O)N4)C2)C3)cc1` (stereo in doubt) [Example 14, (2r,4*S)-2-((1*R,5*5)-1-(4-(tert-Butyl)phenyl)-3-azabicyclo[3.1.0]hexane-3-carbonyl)-5-azaspiro[3.4]octan-6-one], the negative logarithm of the IC50 (pIC50) is 7.64.

On to `CC(C)(C)c1ccc([C@]23C[C@H]2CN(C(=O)[C@H]2C[C@]4(CCC(=O)N4)C2)C3)cc1` (stereo in doubt) [Example 15, (2r,4*R)-2-((1*S,5*R)-1-(4-(tert-Butyl)phenyl)-3-azabicyclo[3.1.0]hexane-3-carbonyl)-5-azaspiro[3.4]octan-6-one], for which the negative logarithm of the IC50 (pIC50) was 7.92. On the same count and under the same terms, then `Cc1cccc([C@]23CCN(C(=O)[C@H]4C[C@]5(COC(=O)N5)C4)C[C@H]2C3)c1` (stereo in doubt) [Example 44, (2s,4*R)-2-((1*S,6*R)-6-(m-Tolyl)-3-azabicyclo[4.1.0]heptane-3-carbonyl)-7-oxa-5-azaspiro[3.4]octan-6-one], with 8.55; and `Cc1cccc([C@@]23CCN(C(=O)[C@H]4C[C@]5(COC(=O)N5)C4)C[C@@H]2C3)c1` (stereo in doubt) [Example 45, (2s,4*5)-2-((1*R,6*S)-6-(m-Tolyl)-3-azabicyclo[4.1.0]heptane-3-carbonyl)-7-oxa-5-azaspiro[3.4]octan-6-one], with 7.49.

On to `Cc1ccc([C@]23CCN(C(=O)[C@H]4C[C@]5(COC(=O)N5)C4)C[C@H]2C3)cc1F` (stereo in doubt) [Example 47, (2s,4*R)-2-((1*S,6*R)-6-(3-Fluoro-4-methylphenyl)-3-azabicyclo[4.1.0]heptane-3-carbonyl)-7-oxa-5-azaspiro[3.4]octan-6-one], for which the pIC50 was 7.68. `Cc1ccc([C@@]23CCN(C(=O)[C@H]4C[C@]5(COC(=O)N5)C4)C[C@@H]2C3)cc1F` (stereo in doubt) [Example 48, (2s,4*5)-2-((1*R,6*5)-6-(3-Fluoro-4-methylphenyl)-3-azabicyclo[4.1.0]heptane-3-carbonyl)-7-oxa-5-azaspiro[3.4]octan-6-one]: the negative logarithm of the IC50 (pIC50) was 8.89.
